# From ChEMBL document CHEMBL1148856, “Thiazolone-acylsulfonamides as novel HCV NS5B polymerase allosteric inhibitors: convergence of structure-based drug design and X-ray crystallographic study” (Bioorg Med Chem Lett, 2007)
# Assay: Inhibition of HCV BK NS5B polymerase
# Parameters: species or system Hepacivirus hominis
row,SMILES,IC50 [µM]
1,CCc1ccc(/C=C2\SC(N[C@H](C(=O)NS(=O)(=O)c3ccc(C)cc3)c3ccc(F)cc3)=NC2=O)o1 (stereo in doubt),9.3
2,CCc1ccc(/C=C2\SC(N[C@H](C(=O)NS(=O)(=O)c3ccc([N+](=O)[O-])cc3)c3ccc(Cl)cc3Cl)=NC2=O)o1 (stereo in doubt),6.6
3,CCc1ccc(/C=C2\SC(N[C@H](CS(=O)(=O)NC(=O)c3ccccc3)c3ccccc3)=NC2=O)o1 (stereo in doubt),16

# Further lines, results first:
row,IC50 [µM],SMILES
1,14,CCc1ccc(/C=C2\SC(N[C@H](C(=O)NS(=O)(=O)c3cccc(C(=O)OC)c3)c3ccc(F)cc3)=NC2=O)o1 (stereo in doubt)
2,12,CCc1ccc(/C=C2\SC(N[C@H](C(=O)NS(=O)(=O)c3cccc(C(=O)O)c3)c3ccc(F)cc3)=NC2=O)o1 (stereo in doubt)
3,15,CCc1ccc(/C=C2\SC(N[C@H](C(=O)NS(=O)(=O)c3cccc([N+](=O)[O-])c3)c3ccc(F)cc3)=NC2=O)o1 (stereo in doubt)
